Laboratory results from patent publication US7001905B2, “Substituted diarylamines as MEK inhibitors” (Warner-Lambert Company, priority 2000, dated 2006).

Molecular target: T1, MEK (Homo sapiens, UniProt Q02750)
T1 construct: no tag is given for the 2D mutant
Experiment: in vitro MEK assay
Type: biochemical
Experimental: For evaluation of direct MEK activity, 10 μg GST-MEK, is incubated in the presence of absence of test compound with 5 μg of a glutathione S-transferase fusion protein containing p44MAP kinase with a lysine to alanine mutation at position 71 (GST-MAPK-KA). This mutation eliminates kinase activity of MAPK, so only kinase activity attributed to the added MEK remains. Incubations are 15 minutes at 30° C. in a final volume of 50 μL containing 50 mM Tris (pH 7.5), […], 2, μM EGTA, and 10 μM [γ-^32P]ATP. The reaction is stopped by addition of Laemmli SDS sample buffer. Phosphorylated GST-MAPK-KA is resolved by electrophoresis on a 10% polyacrylamide gel. Radioactivity incorporated into GST-MAPK-KA is determined by autoradiography, and subsequent scintillation counting of excised bands.
Alternatively, an artificially activated MEK containing serine to glutamate mutations at positions 218 and 222 (GST-MEK-2E) is used. When these two sites are phosphorylated, MEK activity is increased. Phosphorylation of these sites can be mimicked by mutation of the serine residues to glutamate. For this assay, 5 μg GST-MEK-2E is incubated with 5 μg GST-MAPK-KA for 15 minutes at 30° C. in the same reaction buffer as described above. Reactions are terminated and analyzed as above.

T1 sequence (Q02750 whole entry S218D/S222D, form open): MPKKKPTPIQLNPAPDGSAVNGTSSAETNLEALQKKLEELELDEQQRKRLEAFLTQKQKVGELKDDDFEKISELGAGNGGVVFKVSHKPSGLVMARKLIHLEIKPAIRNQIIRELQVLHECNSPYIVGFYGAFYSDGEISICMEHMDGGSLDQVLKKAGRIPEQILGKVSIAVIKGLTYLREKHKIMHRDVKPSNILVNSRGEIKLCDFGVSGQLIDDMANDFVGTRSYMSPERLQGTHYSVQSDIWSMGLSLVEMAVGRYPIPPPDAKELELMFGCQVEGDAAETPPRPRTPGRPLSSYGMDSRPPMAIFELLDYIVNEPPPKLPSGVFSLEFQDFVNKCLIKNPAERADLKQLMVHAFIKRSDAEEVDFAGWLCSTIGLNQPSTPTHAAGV

Row | SMILES | in vitro MEK assay: % inhibition @ 1 μM [%] | IC50 [µM]
1 | Cc1cc(I)ccc1N1COC(=O)c2cc(C(=O)N(CCO)CCO)c(F)c(F)c21 [Example 49, 7,8-Difluoro-1-(4-iodo-2-methyl-phenyl)-4-oxo-1,4-dihydro-2H-3,1-benzoxazine-6-carboxylic acid bis-(2-hydroxy-ethyl)-amide] | 50 | –
2 | Cc1cc(I)ccc1N1COC(=O)c2cc(C(=O)NCCc3c[nH]cn3)c(F)c(F)c21 [Example 50, 7,8-Difluoro-1-(4-iodo-2-methyl-phenyl)4-oxo-1,4-dihydro-2H-3,1-benzoxazine-6-carboxylic acid [2-(1H-imidazol4-yl)-ethyl]-amide] | 44 | –
3 | Cc1cc(I)ccc1N1COC(=O)c2cc(C(=O)N3CCOCC3)c(F)c(F)c21 [Example 51, 7,8-Difluoro-1-(4-iodo-2-methyl-phenyl)-6-(morpholine-4-carbonyl)-1,2-dihydro-3,1-benzoxazin-4-one] | 72 | –
4 | Cc1cc(I)ccc1N1COC(=O)c2cc(C(=O)NCCCn3ccnc3)c(F)c(F)c21 [Example 52, 7,8-Difluoro-1-(4-iodo-2-methyl-phenyl)-4-oxo-1,4-dihydro-2H-3,1-benzoxazine-6-carboxylic acid (3-imidazol-1-yl-propyl)amide] | 35 | –
5 | Cc1cc(I)ccc1N1COC(=O)c2cc(C(=O)Nc3ccc(N(C)C)cc3)c(F)c(F)c21 [Example 53, 7,8-Difluoro-1-(4-iodo-2-methyl-phenyl)-4-oxo-1,4-dihydro-2H-3,1-benzoxazine-6-carboxylic acid (4-dimethylamino-phenyl)amide] | 61 | –
6 | CCN1CCN(C(=O)c2cc3c(c(F)c2F)N(c2ccc(I)cc2C)COC3=O)CC1 [Example 54, 6-(4-Ethyl-piperazine-1-carbonyl)-7,8-difluoro-1-(4-iodo-2-methyl-phenyl)-1,2-dihydro-3,1-benzoxazin-4-one] | 56 | –
7 | Cc1cc(I)ccc1N1COC(=O)c2cc(C(=O)N(C)CCc3c[nH]c4ccccc34)c(F)c(F)c21 [Example 55, 7,8-Difluoro-1-(4-iodo-2-methyl-phenyl)-4-oxo-1,4-dihydro-2H-3,1-benzoxazine-6-carboxylic acid [2-(1H-indol-3-yl)ethyl]-methyl-amide] | 41 | –
8 | Cc1cc(I)ccc1N1COC(=O)c2cc(C(=O)N3CCNCC3)c(F)c(F)c21 [Example 56, 7,8-Difluoro-1-(4-iodo-2-methyl-phenyl)-6-(piperazine-1-carbonyl)-1,2-dihydro-3,1-benzoxazin-4-one] | 1 | –
9 | Cc1cc(I)ccc1N1COC(=O)c2cc(C(=O)NCC3CCCO3)c(F)c(F)c21 (centres unmarked) [Example 57, 7,8-Difluoro-1-(4-iodo-2-methyl-phenyl)4-oxo-1,4-dihydro-2H-3,1-benzoxazine-6-carboxylic acid (tetrahydro-furan-2-ylmethyl)-amide] | 35 | –
10 | Cc1cc(I)ccc1N1COC(=O)c2cc(C(=O)N3CCSC3)c(F)c(F)c21 [Example 58, 7,8-Difluoro-1-(4-iodo-2-methyl-phenyl)-6-(thiazolidine-3-carbonyl)-1,2-dihydro-3,1-benzoxzin-4-one] | 76 | –
11 | Cc1cc(I)ccc1N1COC(=O)c2cc(C(=O)N3CCSCC3)c(F)c(F)c21 [Example 59, 7,8-Difluoro-1-(4-iodo-2-methyl-phenyl)-6-(thiomorpholine-4-carbonyl)-1,2-dihydro-3,1-benzoxzin-4-one] | 75 | –
12 | Cc1cc(I)ccc1Nc1c(C(=O)O)cc(C(=O)N2CC[C@@H](O)C2)c(F)c1F [Example 61, 3,4-Difluoro-5-[1-((R)-3-hydroxy-pyrrolidin-1-yl)-methanoyl]-2-(4-iodo-2-methyl-phenylamino)-benzoic acid] | 75 | –
13 | Cc1cc(I)ccc1Nc1c(C(=O)O)cc(C(=O)NCCCN2CCCC2=O)c(F)c1F [Example 62, 4,5-Difluoro-6-(4-iodo-2-methyl-phenylamino)-N-[3-(2-oxo-pyrrolidin-1-yl)-propyl]-isophthalamic acid] | 78 | –
14 | Cc1cc(I)ccc1Nc1c(C(=O)O)cc(C(=O)N2CCN(C)CC2)c(F)c1F [Example 64, 3,4-Difluoro-2-(4-iodo-2-methyl-phenylamino)-5-[1-(4-methyl-piperazin-1-yl)-methanoyl]-benzoic acid] | 57 | –

Results, then the molecule that gave them:

Row | in vitro MEK assay: % inhibition @ 1 μM [%] | IC50 [µM] | SMILES
15 | 63 | 1.38 | Cc1cc(I)ccc1Nc1c(C(=O)O)cc(C(=O)NCCOCCO)c(F)c1F [Example 65, 4,5-Difluoro-N-[2-(2-hydroxy-ethoxy)-ethyl]-6-(4-iodo-2-methyl-phenylamino)-isophthalamic acid]
16 | 14 | – | Cc1cc(I)ccc1Nc1c(C(=O)O)cc(C(=O)NCCC2CCCN2C)c(F)c1F (centres unmarked) [Example 66, 4,5-Difluoro-6-(4-iodo-2-methyl-phenylamino)-N-[2-(1-methyl-pyrrolidin-2-yl)-ethyl]-isophthalamic acid]
17 | 81 | 3.3 | Cc1cc(I)ccc1Nc1c(C(=O)O)cc(C(=O)NCCc2ccccn2)c(F)c1F [Example 67, 4,5-Difluoro-6-(4-iodo-2-methyl-phenylamino)-N-(2-pyridin-2-yl-ethyl)-isophthalamic acid]
18 | 24 | – | CCCCN(CCS)C(=O)c1cc(C(=O)O)c(Nc2ccc(I)cc2C)c(F)c1F [Example 68, N-Butyl-4,5-difluoro-6-(4-iodo-2-methyl-phenylamino)-N-(2-mercapto-ethyl)-isophthalamic acid]
19 | 78 | 2.2 | Cc1cc(I)ccc1Nc1c(C(=O)O)cc(C(=O)N2CCCCC2CCO)c(F)c1F (centres unmarked) [Example 69, 3,4-Difluoro-5-{1-[2-(2-hydroxy-ethyl)-piperidin-1-yl]-methanoyl}-2-(4-iodo-2-methyl-phenylamino)-benzoic acid]
20 | 49 | – | Cc1cc(I)ccc1Nc1c(C(=O)O)cc(C(=O)N2CCCCC2CO)c(F)c1F (centres unmarked) [Example 70, 3,4-Difluoro-5-[1-(2-hydroxymethyl-piperidin-1-yl)-methanoyl]-2-(4-iodo-2-methyl-phenylamino)-benzoic acid]
21 | 86 | 1.45 | Cc1cc(I)ccc1Nc1c(C(=O)O)cc(C(=O)NCc2cccnc2)c(F)c1F [Example 71, 4,5-Difluoro-6-(4-iodo-2-methyl-phenylamino)-N-pyridin-3-ylmethyl-isophthalamic acid]
22 | 65 | – | Cc1cc(I)ccc1Nc1c(C(=O)O)cc(C(=O)Nc2ccc3c(c2)OCCO3)c(F)c1F [Example 72, N-(2,3-Dihydro-benzo[1,4]dioxin-6-yl)4,5-difluoro-6-(4-iodo-2-methyl-phenylamino)-isophthalamic acid]
23 | 86 | 1.1 | CCOC(=O)c1c[nH]nc1NC(=O)c1cc(C(=O)O)c(Nc2ccc(I)cc2C)c(F)c1F [Example 73, 3-({1-[5-Carboxy-2,3-difluoro-4-(4-iodo-2-methyl-phenylamino)-phenyl]-methanoyl}-amino)-1H-pyrazole-4-carboxylic acid ethyl ester]
24 | 50 | – | Cc1cc(I)ccc1Nc1c(C(=O)O)cc(C(=O)Nc2cccnc2)c(F)c1F [Example 74, 4,5-Difluoro-6-(4-iodo-2-methyl-phenylamino)-N-pyridin-3-yl-isophthalamic acid]
